# Test results taken from PubChem BioAssay (NCI).
# “And” between values parts separate entries of the source, which are not always exact repeats. Equal values may be shown once.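 Values below derive from 48-hour exposures of cells grown in 96-well plates, with endpoints linearly interpolated between the two concentrations bracketing the appropriate inhibition level. Here, GI50 denotes the concentration required for 50% inhibition of growth. At the TGI there is no net growth.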
# Assays:
# Experiment in all cases: NCI-60 cell line screen, 48 h
# [1] = test system: IGROV1 ovarian
# [2] = test system: HT29 colon
# [3] = test system: SN12C renal
# [4] = test system: SF-539 CNS
# [5] = test system: CAKI-1 renal
# [6] = test system: SF-295 CNS
# [7] = test system: TK-10 renal
# [8] = test system: UO-31 renal
# [9] = test system: HOP-92 NSCLC
# [10] = test system: U251 CNS
Structure (SMILES),TGI [1],TGI [2],TGI [3],TGI [4],TGI [5],TGI [6],TGI [7],TGI [8],TGI [9],TGI [10],GI50 [1],GI50 [3],GI50 [4],GI50 [5],GI50 [6],GI50 [7],GI50 [8],GI50 [9],GI50 [10],GI50 [2]
CC1(c2ccc(Cl)cc2)C2C(=O)NC(=O)C1C(=O)NC2=O (stereo not drawn),> 100 µM,> 100 µM,> 100 µM,> 100 µM,> 100 µM,> 100 µM,> 100 µM,> 100 µM,> 100 µM,,,,,,,,,,,
CCc1nc(N)nc(N)c1-c1ccc(N2CCNCC2)cc1,> 100 µM,> 100 µM,> 100 µM,> 100 µM,> 100 µM,> 100 µM,> 100 µM,> 100 µM,> 100 µM,> 100 µM,,,,,,,,,,
CN1CCN(CCCOc2cccc3nc(Nc4ccc(Cl)c(C(F)(F)F)c4)ccc23)CC1,3.6 µM,,3.38 µM,3.02 µM,3.19 µM,3.38 µM,3.44 µM,2.88 µM,3.69 µM,3.23 µM,1.85 µM,1.6 µM,1.58 µM,1.67 µM,1.8 µM,1.8 µM,1.46 µM,1.02 µM,1.49 µM,
Brc1ccc2ns[s+]c2c1,> 100 µM,> 100 µM,> 100 µM,65.3 µM,> 100 µM,> 100 µM,> 100 µM,> 30.7 µM,95 µM,> 31.6 µM,,,,,,,,,,
Cc1cc([N+](=O)[O-])c2ccccc2[n+]1[O-],11.9 µM and 10.3 µM,0.328 µM and 0.393 µM,1.8 µM and 3.09 µM,1.2 µM and 0.867 µM,3.92 µM and 2.35 µM,0.76 µM and 2 µM,0.541 µM and 0.623 µM,0.681 µM and 0.903 µM,1.73 µM and 0.597 µM,2.93 µM and 2.84 µM,2.58 µM and 3.26 µM,0.278 µM and 0.27 µM,0.303 µM and 0.214 µM,0.541 µM and 0.627 µM,0.206 µM and 0.236 µM,0.187 µM and 0.21 µM,0.215 µM and 0.22 µM,0.308 µM and 0.153 µM,0.402 µM and 0.347 µM,0.066 µM and 0.0948 µM
Cc1cc(N2CCN(C)CC2)n2nc(-c3ccc(Cl)cc3)nc2n1,> 100 µM,> 100 µM,> 100 µM,> 100 µM,> 100 µM,> 100 µM,> 100 µM,,> 100 µM,> 100 µM,,,,,,,,,,
CC[n+]1c(/C=C/C=C2\N(C)c3ccccc3C2(C)C)sc2ccccc21,10.7 µM,9.74 µM,8 µM,7.5 µM,,7.55 µM,13.2 µM,7.26 µM,10.8 µM,7.61 µM,4.68 µM,4.16 µM,4 µM,,3.88 µM,5.06 µM,3.55 µM,3.54 µM,3.85 µM,4.74 µM
CCCCCCC[CH2][Sn]1([CH2]CCCCCCC)[O]C(=O)c2cccnc2[O]1,> 100 µM,> 100 µM,> 100 µM,> 100 µM,> 100 µM,> 100 µM,> 100 µM,> 100 µM,> 100 µM,> 100 µM,> 100 µM,> 100 µM,> 100 µM,> 100 µM,> 100 µM,> 100 µM,> 100 µM,> 100 µM,> 100 µM,> 100 µM
NC(=O)NC1C(C(N)=O)N(Cc2ccccc2)C(=O)N1Cc1ccccc1 (stereo not drawn),> 100 µM,> 100 µM,,> 100 µM,> 100 µM,> 100 µM,> 100 µM,> 100 µM,> 100 µM,> 100 µM,,,,,,,,,,
CCOC(=O)C1(C)CCCCC(=O)N1 (stereo not drawn),> 100 µM,> 100 µM,> 100 µM,,> 100 µM,> 100 µM,> 100 µM,> 100 µM,> 100 µM,> 100 µM,,,,,,,,,,
CCOC(=O)COc1ccc2c(C)cc(=O)oc2c1,> 100 µM,> 100 µM,> 100 µM,> 100 µM,> 100 µM,> 100 µM,,> 100 µM,> 100 µM,> 100 µM,,,,,,,,,,
COc1cc2c(=O)[nH]c3cc([N+](=O)[O-])ccc3c2cc1[N+](=O)[O-],> 100 µM,> 100 µM,> 100 µM,> 100 µM,> 100 µM,> 100 µM,> 100 µM,> 100 µM,> 100 µM,,3.87 µM,9.97 µM,4.65 µM,6.18 µM,6.27 µM,3.29 µM,2.03 µM,15.8 µM,,2.93 µM
CN(C)C(=S)SCC(=O)Nc1ccccc1,> 100 µM,> 100 µM,> 100 µM,,> 100 µM,> 100 µM,,> 100 µM,> 100 µM,> 100 µM,,,,,,,,,,
COc1cc2nc3cc([N+](=O)[O-])ccc3c(NCCNCC(C)(C)O)c2cc1OC,2.16 µM,1.4 µM,,2.12 µM,11 µM,3.13 µM,5.43 µM,5.93 µM,2.43 µM,2.31 µM,0.457 µM,,0.566 µM,2.42 µM,0.517 µM,1.7 µM,1.85 µM,0.503 µM,0.533 µM,0.327 µM
CN(c1ccccc1)c1c(Cl)c(=O)oc2c1ccc1occc12,,> 100 µM,> 100 µM,> 100 µM,> 100 µM,> 100 µM,> 100 µM,> 100 µM,> 100 µM,> 100 µM,,,,,,,,,,
c1cc2c(cn1)Nc1ccncc1S2,,> 100 µM,> 100 µM,> 100 µM,> 100 µM,> 100 µM,> 100 µM,> 100 µM,76.6 µM,> 100 µM,,69.4 µM,33.8 µM,> 100 µM,52.7 µM,42.7 µM,23.5 µM,8.52 µM,44.6 µM,58 µM
Cc1ccc(S(=O)(=O)NC(CN)C(=O)O)cc1 (stereo not drawn),> 100 µM,> 100 µM,,> 100 µM,> 100 µM,> 100 µM,> 100 µM,> 100 µM,> 100 µM,> 100 µM,,,,,,,,,,
Cc1ccc(S(=O)(=O)N/N=C(/c2nc3ccc([N+](=O)[O-])cc3[nH]c2=O)C(O)c2ccc(C(O)/C(=N\NS(=O)(=O)c3ccc(C)cc3)c3nc4ccc([N+](=O)[O-])cc4[nH]c3=O)cc2)cc1 (stereo not drawn),> 100 µM,> 100 µM,,> 100 µM,,,> 100 µM,> 100 µM,> 100 µM,> 100 µM,,,,,,,,,,
